In PubChem BioAssay AID1963985 (Molecular Pharmacology Branch, DTP, NCI, 2024):

Test system: 252836-082-R-J2-PDC tumor spheroids, viability
Assay: Anticancer human tumor 252836-082-R-J2-PDC patient-derived head and neck squamous cell carcinoma cell line growth inhibition [PI3K]
Conditions: spheroids with HUVEC and MSC; for IC50: curve of first compound; for viability, T/C: stronger effect = lower value
How it was run: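 Complex 3D spheroids (cancer cells + endothelial HUVEC + mesenchymal stem cells); drug pairs of targeted agent x inavolisib/alpelisib/duvelisib/copanlisib; half-log series from ~Cmax, max 10 microM if Cmax unknown; endpoint viability.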
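Note: spheroids exposed to agents for seven days before readout.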
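Throughout, for viability, T/C: percent of vehicle DMSO control viability so 100% = untreated growth.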

CC(C)n1nc(-c2ccc3oc(N)nc3c2)c2c(N)ncnc21 + COc1c(OCCCN2CCOCC2)ccc2c3n(c(=NC(=O)c4cnc(N)nc4)nc12)CCN3
IC50 (second compound 0.00316 µM): 19 nM | IC50 (second compound 0.01 µM): 16.5 nM | IC50 (second compound 0.0316 µM): 3.33 nM | IC50 (second compound 0.1 µM): < 0.316 nM | IC50 (second compound 0.316 µM): < 0.316 nM | IC50 (second compound 1 µM): < 0.316 nM | viability, T/C (second compound 0.00316 µM, first compound 0.000316 µM): 81.7% | viability, T/C (second compound 0.00316 µM, first compound 0.001 µM): 81.9% | viability, T/C (second compound 0.00316 µM, first compound 0.00316 µM): 74.9% | viability, T/C (second compound 0.00316 µM, first compound 0.01 µM): 58.1% | viability, T/C (second compound 0.00316 µM, first compound 0.0316 µM): 43.1% | viability, T/C (second compound 0.00316 µM, first compound 0.1 µM): 20.8% | viability, T/C (second compound 0.01 µM, first compound 0.000316 µM): 78.7% | viability, T/C (second compound 0.01 µM, first compound 0.001 µM): 73.5% | viability, T/C (second compound 0.01 µM, first compound 0.00316 µM): 74.9% | viability, T/C (second compound 0.01 µM, first compound 0.01 µM): 57.8% | viability, T/C (second compound 0.01 µM, first compound 0.0316 µM): 38.5% | viability, T/C (second compound 0.01 µM, first compound 0.1 µM): 20.5% | viability, T/C (second compound 0.0316 µM, first compound 0.000316 µM): 58.3% | viability, T/C (second compound 0.0316 µM, first compound 0.001 µM): 58.4% | viability, T/C (second compound 0.0316 µM, first compound 0.00316 µM): 48.4% | viability, T/C (second compound 0.0316 µM, first compound 0.01 µM): 42.1% | viability, T/C (second compound 0.0316 µM, first compound 0.0316 µM): 31.4% | viability, T/C (second compound 0.0316 µM, first compound 0.1 µM): 15.3% | viability, T/C (second compound 0.1 µM, first compound 0.000316 µM): 30.4% | viability, T/C (second compound 0.1 µM, first compound 0.001 µM): 34.8% | viability, T/C (second compound 0.1 µM, first compound 0.00316 µM): 33.1% | viability, T/C (second compound 0.1 µM, first compound 0.01 µM): 28.1% | viability, T/C (second compound 0.1 µM, first compound 0.0316 µM): 18.3% | viability, T/C (second compound 0.1 µM, first compound 0.1 µM): 9.85% | viability, T/C (second compound 0.316 µM, first compound 0.000316 µM): 17.8% | viability, T/C (second compound 0.316 µM, first compound 0.001 µM): 18.9% | viability, T/C (second compound 0.316 µM, first compound 0.00316 µM): 12.1% | viability, T/C (second compound 0.316 µM, first compound 0.01 µM): 9.92% | viability, T/C (second compound 0.316 µM, first compound 0.0316 µM): 8.75% | viability, T/C (second compound 0.316 µM, first compound 0.1 µM): 2.66% | viability, T/C (second compound 1 µM, first compound 0.000316 µM): 4.87% | viability, T/C (second compound 1 µM, first compound 0.001 µM): 3.85% | viability, T/C (second compound 1 µM, first compound 0.00316 µM): 4.39% | viability, T/C (second compound 1 µM, first compound 0.01 µM): 3.18% | viability, T/C (second compound 1 µM, first compound 0.0316 µM): 3.53% | viability, T/C (second compound 1 µM, first compound 0.1 µM): 2.06%
